According to patent US9932325B2 (Denali Therapeutics Inc., priority 2015, dated 2018):

Biological target: LRRK2 G2019S enzyme (Homo sapiens (Human), UniProt Q5S007, G2019S)
Test: LRRK2 G2019S TR-FRET biochemical assay (LRRKtide substrate)
Details: 134 μM ATP
Protocol: Detection Reaction Conditions • 1× TR-FRET dilution buffer • 10 mM EDTA • 2 nM antibody • 23° C. reaction temperature • 10 μL total reaction volume
Compounds were prepared by initially diluting to 1 mM with DMSO. 35 μL of reference compound solution, 35 μL of test compound solution, and 35 μL HPE were successively added to the source plate (384-well assay plate, Labcyte). The plates were centrifuged at 2500 rpm for 1 minute and sealed in foil. […] The assay plate was centrifuged at 2500 rpm for 1 minute, and sealed with foil.
To perform the enzyme reaction, 5 μL of LRRKtide substrate and kinase mixture in assay buffer was added to all wells of the assay plate. The plate was centrifuged to concentrate the mixture at the bottom of the wells. The assay plate was incubated at 23° C. for 20 minutes. Following incubation, 5 μL of 2× ATP in assay buffer was added to each well, and plates were centrifuged to concentrate the mixture at the bottom of the wells. The plate was incubated at 23° C. for 60 minutes.
To perform the detection of the reaction, EDTA completely mixed in TR-FRET dilution buffer was added to antibody reagent. 10 μL of detection reagent was added to all wells of each well of the assay plate and the plate was centrifuged to concentrate the mixture at the bottom of the wells. The plate was then incubated at 23° C. for 60 minutes.

LRRK2 G2019S enzyme, sequence (Q5S007 whole entry G2019S): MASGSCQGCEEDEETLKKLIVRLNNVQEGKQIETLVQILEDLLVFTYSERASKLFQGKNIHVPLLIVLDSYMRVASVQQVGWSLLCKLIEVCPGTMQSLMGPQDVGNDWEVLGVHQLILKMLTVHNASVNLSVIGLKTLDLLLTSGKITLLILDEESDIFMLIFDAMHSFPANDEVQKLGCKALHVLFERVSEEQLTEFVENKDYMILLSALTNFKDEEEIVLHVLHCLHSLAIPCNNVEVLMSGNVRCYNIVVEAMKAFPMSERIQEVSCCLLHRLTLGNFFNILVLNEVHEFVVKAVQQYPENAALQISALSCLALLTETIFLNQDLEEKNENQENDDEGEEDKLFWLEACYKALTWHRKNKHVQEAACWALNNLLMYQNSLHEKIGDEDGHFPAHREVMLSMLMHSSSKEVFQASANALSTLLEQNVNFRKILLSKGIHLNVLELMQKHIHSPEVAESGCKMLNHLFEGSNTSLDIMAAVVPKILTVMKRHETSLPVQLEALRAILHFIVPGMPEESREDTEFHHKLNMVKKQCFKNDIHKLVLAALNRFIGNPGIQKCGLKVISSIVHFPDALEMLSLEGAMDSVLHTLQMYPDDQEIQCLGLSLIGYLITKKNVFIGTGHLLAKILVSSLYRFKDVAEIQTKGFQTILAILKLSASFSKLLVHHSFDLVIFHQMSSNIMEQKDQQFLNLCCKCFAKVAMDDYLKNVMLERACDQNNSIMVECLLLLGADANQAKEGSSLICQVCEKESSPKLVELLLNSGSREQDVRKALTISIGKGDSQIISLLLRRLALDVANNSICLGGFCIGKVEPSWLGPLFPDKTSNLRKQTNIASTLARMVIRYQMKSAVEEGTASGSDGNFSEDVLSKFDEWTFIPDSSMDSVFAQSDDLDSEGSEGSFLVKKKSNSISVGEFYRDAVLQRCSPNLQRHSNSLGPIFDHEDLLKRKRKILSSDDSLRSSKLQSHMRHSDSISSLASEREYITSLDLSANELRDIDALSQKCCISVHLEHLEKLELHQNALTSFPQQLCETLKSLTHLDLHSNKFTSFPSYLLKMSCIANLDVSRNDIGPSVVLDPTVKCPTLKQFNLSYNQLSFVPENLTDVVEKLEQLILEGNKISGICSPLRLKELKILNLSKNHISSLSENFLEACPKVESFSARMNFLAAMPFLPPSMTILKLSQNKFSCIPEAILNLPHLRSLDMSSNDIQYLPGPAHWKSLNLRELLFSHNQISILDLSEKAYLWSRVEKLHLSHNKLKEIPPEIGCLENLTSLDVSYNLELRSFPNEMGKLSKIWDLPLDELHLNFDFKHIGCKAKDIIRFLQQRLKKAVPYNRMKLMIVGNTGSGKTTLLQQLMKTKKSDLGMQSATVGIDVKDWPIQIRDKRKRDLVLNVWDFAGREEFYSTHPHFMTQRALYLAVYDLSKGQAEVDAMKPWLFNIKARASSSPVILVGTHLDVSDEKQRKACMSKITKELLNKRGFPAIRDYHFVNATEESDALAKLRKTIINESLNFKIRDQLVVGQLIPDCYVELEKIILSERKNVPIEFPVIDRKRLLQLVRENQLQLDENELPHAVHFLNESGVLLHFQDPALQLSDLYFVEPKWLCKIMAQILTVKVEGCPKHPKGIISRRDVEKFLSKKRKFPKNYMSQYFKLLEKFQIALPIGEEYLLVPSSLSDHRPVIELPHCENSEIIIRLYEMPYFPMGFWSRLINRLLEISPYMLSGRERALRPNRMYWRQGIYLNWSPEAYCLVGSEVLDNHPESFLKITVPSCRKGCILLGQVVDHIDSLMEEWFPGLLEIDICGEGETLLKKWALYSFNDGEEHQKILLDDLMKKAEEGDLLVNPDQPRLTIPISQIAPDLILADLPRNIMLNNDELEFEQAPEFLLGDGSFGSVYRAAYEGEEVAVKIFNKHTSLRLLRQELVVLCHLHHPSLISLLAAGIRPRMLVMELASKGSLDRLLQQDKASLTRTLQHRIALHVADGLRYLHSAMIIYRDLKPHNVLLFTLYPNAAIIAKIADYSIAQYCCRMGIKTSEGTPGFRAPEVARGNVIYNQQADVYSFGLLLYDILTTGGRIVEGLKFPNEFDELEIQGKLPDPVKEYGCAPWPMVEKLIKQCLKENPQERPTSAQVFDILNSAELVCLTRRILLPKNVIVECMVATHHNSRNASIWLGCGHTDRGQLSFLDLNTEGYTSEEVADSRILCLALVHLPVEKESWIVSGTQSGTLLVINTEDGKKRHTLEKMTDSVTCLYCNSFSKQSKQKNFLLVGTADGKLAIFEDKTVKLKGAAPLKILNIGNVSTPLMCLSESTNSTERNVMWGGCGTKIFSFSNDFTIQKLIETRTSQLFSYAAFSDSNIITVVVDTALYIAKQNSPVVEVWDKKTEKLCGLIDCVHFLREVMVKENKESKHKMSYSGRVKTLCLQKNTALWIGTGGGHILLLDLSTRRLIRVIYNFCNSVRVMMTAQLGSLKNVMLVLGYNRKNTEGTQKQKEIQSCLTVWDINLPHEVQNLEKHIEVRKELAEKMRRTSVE

Compound	IC50
[2H]C([2H])([2H])Nc1nc(Nc2cn(C(C)(C)C#N)nc2C)ncc1C(F)(F)F [Compound 67]	< 30 nM
CNc1nc(Nc2cc([C@]34C[C@H]3COC4=O)nn2C2CC2)ncc1C(F)(F)F [Compound 168]	< 30 nM
CCNc1nc(Nc2ccnn2[C@H]2C[C@H](n3ccnn3)C2)ncc1C(F)(F)F [Compound 183, N2-(1-((1R,3R)-3-(1H-1,2,3-triazol-1-yl)cyclobutyl)-1H-pyrazol-5-yl)-N4-ethyl-5-(trifluoromethyl)pyrimidine-2,4-diamine]	< 30 nM
CCNc1nc(Nc2cc(C#N)nn2C2CC2)ncc1C(F)(F)F [Compound 133]	> 60 nM
CCNc1nc(Nc2cc([C@H]3C[C@H]3C(N)=O)nn2C2CC2)ncc1C(F)(F)F [Compound 170]	< 30 nM
CNc1nc(Nc2cn(C(C)(C)c3ncn(C)n3)nc2C)ncc1C(F)(F)F [Compound 14]	< 30 nM
[2H]C([2H])([2H])Nc1nc(Nc2cn(C(C#N)(C([2H])([2H])[2H])C([2H])([2H])[2H])nc2C([2H])([2H])[2H])ncc1C(F)(F)F [Compound 40]	< 30 nM
[2H]C([2H])([2H])n1nc(C(C)(C)n2nccn2)cc1Nc1ncc(Br)c(NC2CC2)n1 [Compound 79]	< 30 nM
[2H]C([2H])([2H])n1nc(C(C)(C)c2ncco2)cc1Nc1ncc(C(F)(F)F)c(NCC)n1 [Compound 82]	< 30 nM
CCNc1nc(Nc2cn(C3(C)CCOC3=O)nc2C2CC2)ncc1Br (single isomer, unassigned) [Compound 115]	< 30 nM
CNc1nc(Nc2cnn(C3CN(C4COC4)CCC3(F)F)c2Cl)ncc1C(F)(F)F (single isomer, unassigned) [Compound 28]	< 30 nM
CCNc1nc(Nc2cn([C@H]3C[C@H](C#N)C3)nc2C)ncc1C(F)(F)F [Compound 35A]	< 30 nM
CCNc1nc(Nc2cc(CN3CCCC3=O)nn2C2CC2)ncc1C(F)(F)F [Compound 149]	30 to 60 nM
CNc1nc(Nc2cnn(CC34CC(C#N)(C3)C4)c2C)ncc1C(F)(F)F [Compound 7]	< 30 nM
CCNc1nc(Nc2cc(C(C)(C)O)nn2C2CCC2)ncc1C(F)(F)F [Compound 191]	< 30 nM
[2H]C([2H])([2H])C([2H])([2H])Nc1nc(Nc2cn(C(C)(C)C#N)nc2C)ncc1C(F)(F)F [Compound 89]	< 30 nM
CCNc1nc(Nc2cnn3c2CC2(COC2)C3)ncc1C(F)(F)F [Compound 20]	< 30 nM
COc1nc(Nc2cnn(C3(C)CCNC3=O)c2C)ncc1Br (stereo not shown) [Compound 65]	< 30 nM
CCNc1nc(Nc2cn(C3C[C@@H]3C#N)nc2C2CC2)ncc1C(F)(F)F (stereo partly shown) [Compound 107]	< 30 nM
CNc1nc(Nc2cnn(C3CC4CCC(C3)N4C)c2C)ncc1C(F)(F)F (stereo not shown) [Compound 1]	< 30 nM
[2H]C([2H])([2H])n1nc(C2(C)CCOC2=O)cc1Nc1ncc(C(F)(F)F)c(NCC)n1 (stereo not shown) [Compound 173]	< 30 nM
CCNc1nc(Nc2ccnn2[C@H]2C[C@H](O)C2)ncc1C(F)(F)F [Compound 180]	30 to 60 nM
COc1nc(Nc2cn(C3(C)CCOC3=O)nc2C)ncc1Br (single isomer, unassigned) [Compound 90]	< 30 nM

Compound	IC50
COc1nc(Nc2cn(C3(C)CCNC3=O)nc2C)ncc1Br (single isomer, unassigned) [Compound 64B]	< 30 nM
CNc1nc(Nc2cn(C3(C)CCOC3=O)nc2Cl)ncc1C(F)(F)F (single isomer, unassigned) [Compound 99]	< 30 nM
CNc1nc(Nc2cn(C3(C)CCCC3=O)nc2C)ncc1C(F)(F)F (stereo not shown) [Compound 195]	< 30 nM
CNc1nc(Nc2cn(C3C[C@@H]4[C@H](C3)C4(F)F)nc2C)ncc1C(F)(F)F (stereo partly shown) [Compound 12]	< 30 nM
CCNc1nc(Nc2cc([C@]34C[C@H]3COC4=O)nn2C2CC2)ncc1C(F)(F)F [Compound 165]	< 30 nM
[2H]C([2H])([2H])C(C#N)(n1cc(Nc2ncc(C(F)(F)F)c(NC)n2)c(C)n1)C([2H])([2H])[2H] [Compound 80]	< 30 nM
[2H]C([2H])([2H])c1nn(C(C#N)(C([2H])([2H])[2H])C([2H])([2H])[2H])cc1Nc1ncc(C(F)(F)F)c(NC([2H])([2H])C([2H])([2H])[2H])n1 [Compound 74]	< 30 nM
CCNc1nc(Nc2cc(C(C)(C)OC)nn2C2CCC2)ncc1C(F)(F)F [Compound 192]	< 30 nM
[2H]C([2H])([2H])n1cnc(C(C)(C)n2cc(Nc3ncc(Br)c(OC)n3)c(C)n2)n1 [Compound 33]	< 30 nM
CCNc1nc(Nc2cnn([C@H]3C[C@@H](N4CCN(CC(F)F)CC4)C3)c2C)ncc1C(F)(F)F [Compound 106]	< 30 nM
CCNc1nc(Nc2cnn(C3CNCCC3(F)F)c2C)ncc1C(F)(F)F (single isomer, unassigned) [Compound 201]	< 30 nM
CCNc1nc(Nc2cc(C3(C)COC3)nn2C2CC2)ncc1Br [Compound 148]	< 30 nM
[2H]C([2H])([2H])n1nc(C2(C)CCCO2)cc1Nc1ncc(C(F)(F)F)c(NCC)n1 (stereo not shown) [Compound 186]	< 30 nM
CCNc1nc(Nc2cc(C3(C)CCn4ccnc43)nn2C2CC2)ncc1C(F)(F)F (stereo not shown) [Compound 167]	< 30 nM
CCNc1nc(Nc2cnn3c2CC(F)C3)ncc1C(F)(F)F (stereo not shown) [Compound 50]	< 30 nM
CCNc1nc(Nc2cnn(C3CCCN(CC(F)F)C3)c2C)ncc1C(F)(F)F (single isomer, unassigned) [Compound 116]	< 30 nM
CCNc1nc(Nc2cnn(C3CCC3)c2C#N)ncc1Br [Compound 58]	< 30 nM
CNc1nc(Nc2cn(C3CC4CCC(C3)N4C)nc2C)ncc1C(F)(F)F (stereo not shown) [Compound 2]	> 60 nM
Cc1c(Nc2ncc(C(F)(F)F)c(NC3CC3)n2)cnn1[C@H]1C[C@H](C#N)C1 [Compound 21]	< 30 nM
COc1nc(Nc2cnn(C3CCC3)c2C#N)ncc1Br [Compound 37]	< 30 nM
CCNc1nc(Nc2cc(N3CCCC3=O)nn2C2CC2)ncc1Br [Compound 158]	< 30 nM
Cc1nn(C(C)(C)C#N)cc1Nc1ncc(Br)c(NC2CC2)n1 [Compound 66]	< 30 nM
CCNc1nc(Nc2cc(N3CCCC3=O)nn2C2CC2)ncc1C(F)(F)F [Compound 153, 1-(1-cyclopropyl-5-((4-(ethylamino)-5-(trifluoromethyl)pyrimidin-2-yl)amino)-1H-pyrazol-3-yl)pyrrolidin-2-one]	< 30 nM

Compound	IC50
CNc1nc(Nc2cn(CC34CC(C#N)(C3)C4)nc2C)ncc1C(F)(F)F [Compound 6]	> 60 nM
CCNc1nc(Nc2cnn3c2CC(C#N)C3)ncc1C(F)(F)F (single isomer, unassigned) [Compound 52A]	< 30 nM
CCNc1nc(Nc2ccnn2[C@H]2C[C@H](n3nccn3)C2)ncc1C(F)(F)F [Compound 182, N2-(1-((1R,3R)-3-(2H-1,2,3-triazol-2-yl)cyclobutyl)-1H-pyrazol-5-yl)-N4-ethyl-5-(trifluoromethyl)pyrimidine-2,4-diamine]	< 30 nM
CCNc1nc(Nc2cn(C(C)(C)c3ccn(C)n3)nc2C)ncc1C(F)(F)F [Compound 18]	< 30 nM
CNc1nc(Nc2cn(C3(C)CCOC3=O)nc2Cl)ncc1C(F)(F)F (single isomer, unassigned) [Compound 123]	< 30 nM
CNc1nc(Nc2cnn3c2OCC2(CC2)C3)ncc1C(F)(F)F [Compound 17]	< 30 nM
CCNc1nc(Nc2cc(C(C)(C)n3nccn3)nn2C2CCC2)ncc1C(F)(F)F [Compound 127]	< 30 nM
COc1nc(Nc2cn(C3C[C@H]3C#N)nc2C2CC2)ncc1Br (single isomer, unassigned) [Compound 213]	< 30 nM
Cc1nn(C(C)(C)C#N)cc1Nc1ncc(C(F)(F)F)c(NC2(C)CC2)n1 [Compound 84]	< 30 nM
CCNc1nc(Nc2cc(C3(C)COC3)nn2C2CC2)ncc1C(F)(F)F [Compound 145]	< 30 nM
CNc1nc(Nc2cn(C(C)(C)c3ccn(C)n3)nc2C)ncc1C(F)(F)F [Compound 15]	< 30 nM
CCNc1nc(Nc2cc(C(C)(C)O)nn2C2CC2)ncc1C(F)(F)F [Compound 134]	< 30 nM
CCNc1nc(Nc2cnn3c2CC(C#N)C3)ncc1C(F)(F)F (single isomer, unassigned) [Compound 52B]	< 30 nM
Cc1nn(C(C)(C)C#N)cc1Nc1ncc(C(F)(F)F)c(NC2C3CC2C3)n1 (stereo not shown) [Compound 5]	< 30 nM
CCNc1nc(Nc2cc(C3(C)CCn4ncnc43)nn2C2CC2)ncc1C(F)(F)F (stereo not shown) [Compound 171]	> 60 nM
CCNc1nc(Nc2cn([C@H]3C[C@@H](C#N)C3)nc2C)ncc1C(F)(F)F [Compound 35B]	< 30 nM
CCNc1nc(Nc2cn(C3CC3)nc2[C@H]2C[C@@H](n3nccn3)C2)ncc1C(F)(F)F [Compound 197]	< 30 nM
CCNc1nc(Nc2cnn(C3CN(CC)CCC3(F)F)c2Cl)ncc1C(F)(F)F (single isomer, unassigned) [Compound 205]	< 30 nM
CNc1nc(Nc2cn(C3C[C@H]3C#N)nc2C2CC2)ncc1C(F)(F)F (single isomer, unassigned) [Compound 209]	< 30 nM
[2H]C([2H])([2H])n1nc([C@@]23C[C@@H]2COC3=O)cc1Nc1ncc(C(F)(F)F)c(NCC)n1 [Compound 184]	< 30 nM
Cc1nn(C(C)(C)C#N)cc1Nc1ncc(Cl)c(OC2CC2)n1 [Compound 60]	< 30 nM
